{"source": "patent US20250049911A1", "about": "“I[…] FOR IMMUNOTHERAPEUTIC AND OTHER USES” (priority 2021, published 2025)", "key": {"[1]": {"tested_on": "primary human naïve CD8+ T cells", "format": "cell-based"}, "murine CD8+ T cells": {"tested_on": "murine CD8+ T cells", "assay": "IFN-γ expression and proliferation of murine CD8+ T cells", "format": "cell-based, mouse"}, "CoV2 RBD protein": {"tested_on": "CoV2 RBD protein", "set-up": "species or system SARS-CoV-2", "settings": "in vivo"}}}
{"molecule": "Nc1cccc(-c2cc3c(Oc4cccc(O)c4)ncnc3[nH]2)c1.O=C(O)C(F)(F)F.O=C(O)C(F)(F)F", "note": "[TWS119]", "values": [{"measurement": "TMSC formation", "setting": "[1]", "result": "could not induce TMSC formation"}, {"measurement": "IFN-γ expression", "setting": "murine CD8+ T cells; 4 days post treatment", "result": "inhibited"}, {"measurement": "T cell proliferation", "setting": "murine CD8+ T cells; CFSE proliferation staining", "result": "inhibited"}]}
{"molecule": "6-bromo-substituted indirubin [BIO]", "values": [{"measurement": "development of TMSCs", "setting": "[1]", "result": "promoted the development of TMSCs"}]}
{"molecule": "CC(=O)O/N=C1/C(=C2/C(=O)Nc3cc(Br)ccc32)Nc2ccccc21", "note": "[BIO-acetoxime]", "values": [{"measurement": "development of TMSCs", "setting": "[1]", "result": "promoted the development of TMSCs"}]}
{"molecule": "Polyinosinic:polycytidylic acid [poly(I:C)]", "values": [{"measurement": "humoral response", "setting": "CoV2 RBD protein", "result": "strong humoral response"}, {"measurement": "ratio of IgG2b to IgG1 titer", "setting": "CoV2 RBD protein", "result": "balanced Th1/Th2 profile or Th2-dominant response"}]}
{"molecule": "IL-15", "values": [{"measurement": "TMSC expansion in culture", "setting": "[1]", "result": "significantly expanded TMSCs"}, {"measurement": "TMSC formation", "setting": "[1]", "result": "only a moderate advantage"}]}
{"molecule": "O=C1Cc2c([nH]c3ccc(Br)cc23)-c2ncccc2N1", "note": "[1-Azakenpaullone]", "values": [{"measurement": "development of TMSCs", "setting": "[1]", "result": "promoted the development of TMSCs"}]}
{"molecule": "IL-7 (protein, UniProt P13232 26-177, looked up) Interleukin-7: DCDIEGKDGKQYESVLMVSIDQLLDSMKEIGSNCLNNEFNFFKRHICDANKEGMFLFRAARKLRQFLKMNSTGDFDLHLLKVSEGTTILLNCTGQVKGRKPAALGEAQPTKSLEENKSLKEQKKLNDLCFLKRLLQEIKTCWNKILMGTKEH", "values": [{"measurement": "TMSC expansion in culture", "setting": "[1]", "result": "significantly expanded TMSCs"}, {"measurement": "TMSC formation", "setting": "[1]", "result": "only a moderate advantage"}]}
